Test results taken from US20260308159A1, “BICYCLIC HETEROARYLAMIDES HAVING GPR68 MODULATING ACTIVITY” (RECURSION PHARMACEUTICALS, INC., priority 2023, published 2026).

biological target: T1, human GPR68 (Homo sapiens, UniProt Q15743); experiment: GPR68 Biochemical Assay (Promega GloSensor cAMP assay, GPR68 antagonism); assay type: cell-based; details: HEK293T cells transiently expressing hGPR68, antagonism of pH 5.5 stimulated cAMP, 15 min, read-out: hGPR68 IC50
T1 construct: encoding full-length human GPR68 (uniprot ID: Q15743); expressed in transfected cells; host or cells: HEK293T
T1 sequence (Q15743 whole entry): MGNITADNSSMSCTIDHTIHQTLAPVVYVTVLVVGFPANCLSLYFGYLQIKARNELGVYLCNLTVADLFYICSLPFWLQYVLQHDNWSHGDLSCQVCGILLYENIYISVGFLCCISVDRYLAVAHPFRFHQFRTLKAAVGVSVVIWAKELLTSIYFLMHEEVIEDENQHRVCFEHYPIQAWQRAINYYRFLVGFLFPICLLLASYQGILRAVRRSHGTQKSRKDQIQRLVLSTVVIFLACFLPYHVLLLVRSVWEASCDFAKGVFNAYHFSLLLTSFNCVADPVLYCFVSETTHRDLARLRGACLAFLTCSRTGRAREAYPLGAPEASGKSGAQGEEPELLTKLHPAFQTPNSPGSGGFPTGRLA
Summary of the method: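 HEK293T cells transiently co-transfected with full-length human GPR68 and GloSensor plasmids, preloaded 60 min with GloSensor substrate in pH 8.0 buffer. Compounds (9-point half-log series, top 50 μM final, 0.5% DMSO) added with pH 5.5 buffer (~EC80-90 stimulation); luminescence read after 15 min at room temperature. IC50 from sigmoidal fit of % inhibition.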

IC50, 500 to 5000 nM:
NC(=O)c1c(-c2ccccc2F)nn2c(C(=O)NC3Cc4ccccc4C3)cccc12 [Compound 36, 2-(2-fluorophenyl)-N7-indan-2-yl-pyrazolo[1,5-a]pyridine-3,7-dicarboxamide]
NC(=O)c1cnn2c(C(=O)NC3Cc4cccc(CCC(F)(F)F)c4C3)ccnc12 (centres unmarked) [Compound 14, N7-[4-(3,3,3-trifluoropropyl)indan-2-yl]pyrazolo[1,5-a]pyrimidine-3,7-dicarboxamide]
COCc1nn2c(C(=O)NCc3cnn(C)c3)ccnc2c1C(N)=O [Compound 63, 2-(methoxymethyl)-N7-[(1-methylpyrazol-4-yl)methyl]pyrazolo[1,5-a]pyrimidine-3,7-dicarboxamide]
NC(=O)c1cnn2c(C(=O)NCC3CCC(F)(F)CC3)ccnc12 [Compound 101, N7-[(4,4-difluorocyclohexyl)methyl]pyrazolo[1,5-a]pyrimidine-3,7-dicarboxamide]
COCc1nn2c(C(=O)NC3CCc4nccn4C3)ccnc2c1C(N)=O (centres unmarked) [Compound 187, 2-(methoxymethyl)-N7-(5,6,7,8-tetrahydroimidazo[1,2-a]pyridin-6-yl)pyrazolo[1,5-a]pyrimidine-3,7-dicarboxamide]
COCc1nn2c(C(=O)N3Cc4ccccc4C3)ccnc2c1C(N)=O [Compound 95, 7-(isoindoline-2-carbonyl)-2-(methoxymethyl)pyrazolo[1,5-a]pyrimidine-3-carboxamide]
CN(C)Cc1nn2c(C(=O)NC3Cc4ccccc4C3)ccnc2c1C(N)=O [Compound 29, 2-[(dimethylamino)methyl]-N7-indan-2-yl-pyrazolo[1,5-a]pyrimidine-3,7-dicarboxamide]

IC50, 50 to 500 nM:
Cc1nn2c(C(=O)NC3CC(F)(F)C3)ccnc2c1C(N)=O [Compound 48, N7-(3,3-difluorocyclobutyl)-2-methyl-pyrazolo[1,5-a]pyrimidine-3,7-dicarboxamide]
NC(=O)c1cnn2c(C(=O)NC3Cc4cccc(Cl)c4C3)ccnc12 (centres unmarked) [Compound 4, N7-(4-chloroindan-2-yl)pyrazolo[1,5-a]pyrimidine-3,7-dicarboxamide]
COCc1nc2c(C(=O)NC3CCC(F)(F)CC3)cc(C)nn2c1C(N)=O [Compound 218, N8-(4,4-difluorocyclohexyl)-2-(methoxymethyl)-6-methyl-imidazo[1,2-b]pyridazine-3,8-dicarboxamide]
COCc1nn2c(C(=O)NC3Cc4ccccc4C3)ccnc2c1C(N)=S [Compound 149, 3-carbamothioyl-N-indan-2-yl-2-(methoxymethyl)pyrazolo[1,5-a]pyrimidine-7-carboxamide]
COCc1nn2c(C(=O)NC3Cc4cccnc4C3)ccnc2c1C(N)=O (single isomer, unassigned) [Compound 146, N7-(6,7-dihydro-5H-cyclopenta[b]pyridin-6-yl)-2-(methoxymethyl)pyrazolo[1,5-a]pyrimidine-3,7-dicarboxamide]
COCc1nn2c(C(=O)Nc3cc(C(F)(F)F)ccn3)ccnc2c1C(N)=O [Compound 65, 2-(Methoxymethyl)-N7-[4-(trifluoromethyl)-2-pyridyl]pyrazolo[1,5-a]pyrimidine-3,7-dicarboxamide]
COCc1nn2c(C(=O)NC3(c4ccc(F)cc4)CC3)ccnc2c1C(N)=O [Compound 127, N7-[1-(4-fluorophenyl)cyclopropyl]-2-(methoxymethyl)pyrazolo[1,5-a]pyrimidine-3,7-dicarboxamide]
COCc1nn2c(C(=O)NC3(C)Cc4ccccc4C3)ccnc2c1C(N)=O [Compound 121, 2-(methoxymethyl)-N7-(2-methylindan-2-yl)pyrazolo[1,5-a]pyrimidine-3,7-dicarboxamide]

IC50, 5000 to 50000 nM:
NC(=O)c1cnn2c(C(=O)NC3Cc4nccn4C3)ccnc12 (centres unmarked) [Compound 19, N7-(6,7-dihydro-5H-pyrrolo[1,2-a]imidazol-6-yl)pyrazolo[1,5-a]pyrimidine-3,7-dicarboxamide]
NC(=O)c1cnn2c(C(=O)NCCC(F)(F)F)ccnc12 [Compound 100, N7-(3,3,3-trifluoropropyl)pyrazolo[1,5-a]pyrimidine-3,7-dicarboxamide]

IC50, < 50 nM:
COCc1nn2c(C(=O)NC3Cc4ccc(Cl)cc4C3)ccnc2c1C(N)=O (centres unmarked) [Compound 87, N7-(5-chloroindan-2-yl)-2-(methoxymethyl)pyrazolo[1,5-a]pyrimidine-3,7-dicarboxamide]
NC(=O)c1c(C2CC2)nn2c(C(=O)NC3Cc4cscc4C3)ccnc12 [Compound 134, 2-cyclopropyl-N7-(5,6-dihydro-4H-cyclopenta[c]thiophen-5-yl)pyrazolo[1,5-a]pyrimidine-3,7-dicarboxamide]
NC(=O)c1c(C2CC2)nn2c(C(=O)NC3CS(=O)(=O)c4ccccc43)ccnc12 (centres unmarked) [Compound 231, 2-cyclopropyl-N7-(1,1-dioxo-2,3-dihydrobenzothiophen-3-yl)pyrazolo[1,5-a]pyrimidine-3,7-dicarboxamide]
COCc1nn2c(C(=O)NC3CC(F)(F)C3)ccnc2c1C(N)=O [Compound 58, N7-(3,3-difluorocyclobutyl)-2-(methoxymethyl)pyrazolo[1,5-a]pyrimidine-3,7-dicarboxamide]
COCc1nn2c(C(=O)NC3CCC(F)(F)c4ccccc43)ccnc2c1C(N)=O (centres unmarked) [Compound 116, N7-(4,4-difluorotetralin-1-yl)-2-(methoxymethyl)pyrazolo[1,5-a]pyrimidine-3,7-dicarboxamide]
NC(=O)c1c(C2CC2)nn2c(C(=O)N[C@@H]3CCS(=O)(=O)c4ccccc43)ccnc12 [Compound 235, 2-cyclopropyl-N7-[(4R)-1,1-dioxo-3,4-dihydro-2H-thiochromen-4-yl]pyrazolo[1,5-a]pyrimidine-3,7-dicarboxamide]
COCc1nn2c(C(=O)Nc3ccc(F)cc3F)ccnc2c1C(N)=O [Compound 68, N7-(2,4-difluorophenyl)-2-(methoxymethyl)pyrazolo[1,5-a]pyrimidine-3,7-dicarboxamide]
NC(=O)c1c(C2CC2)nn2c(C(=O)NC3CC(F)(F)C3)ccnc12 [Compound 136, 2-cyclopropyl-N7-(3,3-difluorocyclobutyl)pyrazolo[1,5-a]pyrimidine-3,7-dicarboxamide]
COCc1nn2c(C(=O)NC3CCc4ccc(OC)cc4C3)ccnc2c1C(N)=O (centres unmarked) [Compound 73, 2-(methoxymethyl)-N7-(7-methoxytetralin-2-yl)pyrazolo[1,5-a]pyrimidine-3,7-dicarboxamide]
COCc1nn2c(C(=O)Nc3cc(C)cc(C)n3)ccnc2c1C(N)=O [Compound 64, N7-(4,6-dimethyl-2-pyridyl)-2-(methoxymethyl)pyrazolo[1,5-a]pyrimidine-3,7-dicarboxamide]
COCc1nn2c(C(=O)NC3Cc4ccc(F)cc4C3)ccnc2c1C(N)=O (centres unmarked) [Compound 194, N7-(5-fluoroindan-2-yl)-2-(methoxymethyl)pyrazolo[1,5-a]pyrimidine-3,7-dicarboxamide]
NC(=O)c1c(C2CC2)nc2c(C(=O)NC3Cc4cscc4C3)ccnn12 [Compound 208, 2-cyclopropyl-N8-(5,6-dihydro-4H-cyclopenta[c]thiophen-5-yl)imidazo[1,2-b]pyridazine-3,8-dicarboxamide]
COCc1nn2c(C(=O)NCc3ccc(F)cc3)ccnc2c1C(N)=O [Compound 70, N7-[(4-fluorophenyl)methyl]-2-(methoxymethyl)pyrazolo[1,5-a]pyrimidine-3,7-dicarboxamide]
COCc1nc2c(C(=O)N[C@@H]3CCS(=O)(=O)c4ccccc43)ccnn2c1C(N)=O [Compound 219, 2-(methoxymethyl)-N8-[(4R)-1,1-dioxo-3,4-dihydro-2H-thiochromen-4-yl]imidazo[1,2-b]pyridazine-3,8-dicarboxamide]
COCc1nn2c(C(=O)NC3CC(F)(F)c4ccccc43)ccnc2c1C(N)=O (single isomer, unassigned) [Compound 174, N7-(3,3-difluoroindan-1-yl)-2-(methoxymethyl)pyrazolo[1,5-a]pyrimidine-3,7-dicarboxamide]
COCc1nn2c(C(=O)N[C@H]3CCCc4ccccc43)ccnc2c1C(N)=O [Compound 193, 2-(methoxymethyl)-N7-[(1S)-tetralin-1-yl]pyrazolo[1,5-a]pyrimidine-3,7-dicarboxamide]
COCc1nn2c(C(=O)NC3CCOc4cc(F)c(F)cc43)ccnc2c1C(N)=O (centres unmarked) [Compound 182, N7-(6,7-difluorochroman-4-yl)-2-(methoxymethyl)pyrazolo[1,5-a]pyrimidine-3,7-dicarboxamide]
COCc1nn2c(C(=O)NC3CC(F)(F)c4ccc(F)cc43)ccnc2c1C(N)=O (centres unmarked) [Compound 237, 2-(Methoxymethyl)-N7-(3,3,6-trifluoroindan-1-yl)pyrazolo[1,5-a]pyrimidine-3,7-dicarboxamide]

IC50, 50000 to 100000 nM:
NC(=O)c1cnn2c(C(=O)NC3CCc4ccncc4C3)ccnc12 (centres unmarked) [Compound 13, N7-(5,6,7,8-tetrahydroisoquinolin-7-yl)pyrazolo[1,5-a]pyrimidine-3,7-dicarboxamide]

same assay, conditions: hGPR68 IC50, HEK293T cells transiently expressing hGPR68, antagonism of pH 5.5 stimulated cAMP, 15 min

IC50, 500 to 5000 nM:
NC(=O)c1c(C2CCOC2)nn2c(C(=O)NC3CC(F)(F)C3)ccnc12 (centres unmarked) [Compound 45, N7-(3,3-difluorocyclobutyl)-2-tetrahydrofuran-3-yl-pyrazolo[1,5-a]pyrimidine-3,7-dicarboxamide]

IC50, < 50 nM:
NC(=O)c1c(-c2ncco2)nn2c(C(=O)NC3Cc4ccccc4C3)ccnc12 [Compound 33, N7-indan-2-yl-2-oxazol-2-yl-pyrazolo[1,5-a]pyrimidine-3,7-dicarboxamide]
